Legend:
Type in all cases: in vivo
[1] = tested on: Rice (variety: Nipponbare); experiment: Test Example 1: promotion of root growth by hydroponics of rice, 10 ppm; conditions: Oryza sativa, hydroponic solution containing the test compound at 10 ppm, average of 4 or 5 individuals, read-out: Relative value of length of seminal root (%-untreated control plot)
Procedure: (§1) Test for Evaluating Promotion of Root Growth by Hydroponics of Rice
(§2) Rice (variety: Nipponbare)
(§3) Rice seeds were soaked in a 1% aqueous sodium hypochlorite solution for 10 minutes, then soaked in a 70% ethanol solution for surface sterilization, and then washed with distilled water. The sterilized seeds were soaked in a hydroponic solution containing the test compound described above at 10 ppm and incubated in a dark place for 3 days at 28° C. to perform treatment for hastening germination.
(§4) Thereafter, 30 ml of hydroponic solution containing the test compound at 10 ppm was dispensed in a plastic tube (diameter of 20 mm×height of 113 mm) of which the side was covered with cardboard to block light. A float prepared using a styrene board and vinyl mesh was floated, and the rice seeds that had undergone the treatment for hastening germination were placed on the float on the surface of the hydroponic solution. The seeds were cultivated for 3 days at 26° C., an illuminance of 4,000 lux of the top surface of the tube, a humidity of 50%, and a day length of 16 hours.
(§5) The nursery plants of rice obtained after culturing were measured in terms of the length of seminal root by using WinRHIZO system (manufactured by Regent Instruments Inc). For each test plot, an average of the measured values of the seminal root of 4 or 5 individuals was determined.

[2] = tested on: Rice (variety: Nipponbare); experiment: Test Example 3: promotion of root growth by hydroponics of rice, 0.1 ppm; conditions: Oryza sativa, hydroponic solution containing the test compound at 0.1 ppm, average of 4 or 5 individuals, read-out: Relative value of length of seminal root (%-untreated control plot)
Procedure: as §1, §2
A DMSO solution, which contained one of the compounds 2, 6, 7, 16, 20, 33, 34, 36, 37, 38, 40, 41, 43, 44, 45, 46, 47, 48, 50, 51, 52, 53, 54, 55, 56, 61, 64, 67, 68, 71, 72, 73, 74, 75, 76, 79, 80, 81 and 83 of the present invention at a concentration of 1,000 ppm, was added to Hoagland hydroponic solution (Hoagland and Arnon, California Agricultural Experiment Station 1950 Circular 347 pp. 34) of ¼-fold concentration at a volume ratio of 1/10,000. In this manner, hydroponic solutions containing one of the compounds 2, 6, 7, 16, 20, 33, 34, 36, 37, 38, 40, 41, 43, 44, 45, 46, 47, 48, 50, 51, 52, 53, 54, 55, 56, 61, 64, 67, 68, 71, 72, 73, 74, 75, 76, 79, 80, 81 and 83 of the present invention at 0.1 ppm were prepared respectively. As an untreated control plot, a hydroponic solution obtained by adding DMSO to Hoagland hydroponic solution of ¼-fold concentration at a volume ratio of 1/10,000 was used.
as §3, with “at 0.1” for “at 10”
as §4, with “0.1” for “10”
as §5

Nicotiana benthamiana [3] = experiment: Test Example 6: growth promotion under low-temperature stress by hydroponics of Nicotiana benthamiana, 0.1 ppm; conditions: 0.1 ppm in medium, low-temperature stress 7 days at 1.5±1.0° C., green leaf area 3 days later, equation (1)
Procedure: (§6) Test for Evaluating Growth Promotion Under Low-Temperature Stress by Hydroponics of Nicotiana benthamiana
A DMSO solution, which contained one of the compounds 3, 7, 14, 16, 36, 39, 43, 45, 50, 52, 53, 54, 56, 57, 62, 63, 64, 65, 68, 69, 70, 71, 73, 74, 76, 77, 79, 80, 81, 84, 85, 86 and 87 of the present invention at a concentration of 100 ppm, was prepared. The DMSO solution of the compound of the present invention was added at a volume ratio of 1/1,000 to the Murashige•Scoog medium of a ½-fold concentration for the Murashige•Scoog medium (a medium containing 2.3 g of mixed salts (manufactured by Wako Pure Chemical Industries, Ltd.), 200 mg of Myo-inositol (manufactured by Sigma-Aldrich Co. LLC.), 2 mg of nicotinic acid (manufactured by Wako Pure Chemical Industries, Ltd.), 2 mg of pyridoxine hydrochloride (manufactured by Wako Pure Chemical Industries, Ltd.), 20 mg of thiamine hydrochloride (manufactured by Wako Pure Chemical Industries, Ltd.), 20 g of sucrose (manufactured by Wako Pure Chemical Industries, Ltd.), and 1 g of MES (manufactured by DOJINDO LABORATORIES) per 1 L of water and having pH adjusted to 5.8), thereby preparing a medium containing the compound of the present invention at a concentration of 0.1 ppm.
(§7) Seeds of Nicotiana benthamiana were seeded in the 5 μL of the medium and cultured overnight at 22° C. Thereafter, 45 μL of the medium containing the compound of the present invention at a concentration of 0.1 ppm was added thereto, and the seeds are cultivated for 7 days at 22° C., an illuminance of 4,000 lux, and a day length of 16 hours, and the nursery plants raised from the Nicotiana benthamiana were treated with the compound. Moreover, instead of the above medium a test plot, which was obtained by performing the same treatment by using a medium prepared by adding DMSO to the Murashige•Scoog medium of ½-fold concentration at a volume ratio of 1/1,000, was used as a control plot not treated with the compound.
(§8) The nursery plants of the Nicotiana benthamiana treated with the compound were subjected to low-temperature treatment by being cultivated for 7 days at 1.5±1.0° C., an illuminance of 2,000 lux, and a day length of 16 hours.
The nursery plants of the Nicotiana benthamiana having undergone the low-temperature stress treatment were cultivated for 3 days at 22° C., an illuminance of 4,000 lux, and a day length of 16 hours. Thereafter, the area of green leaf was quantified by Scanalyzer HTS (manufactured by LemnaTec GmbH). Moreover, the value of the control plot not treated with the compound that had not yet been subjected to the low-temperature stress treatment was measured in the same manner. A value of a relative leaf area was calculated based on the following equation (1), and if the value of a relative leaf area was 5 or greater, the compound was evaluated to have a mitigating effect. As a result of the evaluation, it was confirmed that when the plant was treated with one of the compounds 3, 7, 14, 16, 36, 39, 43, 45, 50, 52, 53, 54, 56, 57, 62, 63, 64, 65, 68, 69, 70, 71, 73, 74, 76, 77, 79, 80, 81, 84, 85, 86 and 87 of the present invention at 0.1 ppm, the value of a relative leaf area was 5 or greater, compared to the area of green leaf of the control plot not treated with compound. Accordingly, it was confirmed that the treatment using the compound of the present invention brings about a growth promotion effect.
(§9) Relative leaf area=100*(a green area of a plot treated with the compound of the present invention−a green area of a control plot not treated with the compound of the present invention)/(a green area of a control plot not treated with the compound of the present invention that has not yet been subjected to low-temperature stress treatment−green area of a control plot not treated with the compound of the present invention) Equation (1): […]

Nicotiana benthamiana [4] = experiment: Test Example 5: growth promotion under low-temperature stress by hydroponics of Nicotiana benthamiana, 1 ppm; conditions: 1 ppm in medium, low-temperature stress 7 days at 1.5±1.0° C., green leaf area 3 days later, equation (1)
Procedure: as §6
A DMSO solution, which contained one of the compounds 2, 4, 5, 6, 11, 12, 17, 20, 21, 28, 30, 34, 36, 37, 51, 52, 53, 55, 56, 58, 59, 60, 64, 65, 66, 68, 69, 70, 74, 77, 82, 83, 84, 86 and 87 of the present invention at a concentration of 1,000 ppm, was prepared. The DMSO solution of the compound of the present invention was added at a volume ratio of 1/1,000 to the Murashige•Scoog medium of a ½-fold concentration (a medium containing 2.3 g of mixed salts for the Murashige•Scoog medium (manufactured by Wako Pure Chemical Industries, Ltd.), 200 mg of Myo-inositol (manufactured by Sigma-Aldrich Co. LLC.), 2 mg of nicotinic acid (manufactured by Wako Pure Chemical Industries, Ltd.), 2 mg of pyridoxine hydrochloride (manufactured by Wako Pure Chemical Industries, Ltd.), 20 mg of thiamine hydrochloride (manufactured by Wako Pure Chemical Industries, Ltd.), 20 g of sucrose (manufactured by Wako Pure Chemical Industries, Ltd.), and 1 g of MES (manufactured by DOJINDO LABORATORIES) per 1 L of water and having pH adjusted to 5.8), thereby preparing a medium containing the compound of the present invention at a concentration of 1 ppm.
as §7, with “of 1” for “of 0.1”, “are cultured” for “are cultivated”, “above medium,” for “above medium”
as §8
The nursery plants of the Nicotiana benthamiana having undergone the low-temperature stress treatment were cultured for 3 days at 22° C., an illuminance of 4,000 lux, and a day length of 16 hours. Thereafter, the area of green leaf was quantified by Scanalyzer HTS (manufactured by LemnaTec GmbH). Moreover, the value of the control plot not treated with the compound that had not yet been subjected to the low-temperature stress treatment was measured in the same manner. A value of a relative leaf area was calculated based on the following equation (1), and if the value of a relative leaf area was 5 or greater, the compound was evaluated to have a mitigating effect. As a result of the evaluation, it was confirmed that when the plant was treated with one of the compounds 2, 4, 5, 6, 11, 12, 17, 20, 21, 28, 30, 34, 36, 37, 51, 52, 53, 55, 56, 58, 59, 60, 64, 65, 66, 68, 69, 70, 74, 77, 82, 83, 84, 86 and 87 of the present invention at 1 ppm, the value of a relative leaf area was 5 or greater, compared to the area of green leaf of the control plot not treated with compound. Accordingly, it was confirmed that the treatment using the compound of the present invention brings about a growth promotion effect.
as §9, with “treatment−a green” for “treatment−green”

Row | Compound | change in vivo at 10 ppm [1] [%] | change in vivo at 0.1 ppm [2] [%] | relative leaf area (% of untreated control) at 0.1 ppm (Nicotiana benthamiana [3]) [%] | relative leaf area (% of untreated control) at 1 ppm (Nicotiana benthamiana [4]) [%]
1 | COC(=O)c1oc2ccccc2c1NC=O [Compound 81] | > 5 | > 5 | ≥ 5 | –
2 | COC(=O)c1oc2ccc(C(F)(F)F)cc2c1NC(=O)c1ccccc1 [Compound 66] | – | – | – | ≥ 5
3 | COC(=O)c1oc2ccccc2c1N [Compound 57] | > 5 | – | ≥ 5 | –
4 | COC(=O)c1oc2ccccc2c1NC(=O)c1ccccc1 [Compound 59] | – | – | – | ≥ 5
